What was measured:
[1] = test system: PDAC cells; experiment: 3D in vitro assay of invasion, PDAC cells co-cultured with BMDM (IncuCyte Zoom, NeuroTrack); assay type: cell-based, murine; settings: 3D co-culture of PDAC cells with BMDM; pre-treatment 24 hours or treatment at time of co-culture
Procedure: Cell-matrix cultures were performed by seeding PDAC cells onto wells pre-coated with 1 mg/mL Matrix Growth Factor Reduced Matrigel (Becton Dickinson). To observe cell invasion through Matrigel, plates were placed into IncuCyte Zoom (Essen Bioscience) with the software set to capture images every 3 hours in green and fluorescent protein (GFP/RFP)/Bright Field (or Phase Contrast).
For co-cultures, mCherry-labelled PDAC cells were mixed 1:1 with ZsGreen-labelled macrophages, typically primary BMDM unless otherwise noted. Co-cultures were seeded and kept as subconfluent cultures for 48-96 hours in either 2D or 3D conditions.
To quantify the invasive capacity of PDAC cells, 3D in vitro invasion assays were quantified using software provided by Essen Bioscience, NeuroTrack. […] Unlike high-content imaging systems, which require fixation, staining, and endpoint analysis of cells, the algorithm measured live-cell dynamics. […] Once parameters were defined, they were applied to all 3D in vitro invasion assays for quantification.
The NeuroTrack software measures fluorescent-labelled cells. […] In this method, only PDAC cells that have invaded out of 3D structures are counted if they have a fluorescent mCherry label present in their nucleus. Data is plotted with number of nuclei counted on the y-axis and time on the x-axis. […]

[2] = test system: fibroblasts and macrophages; experiment: Viability of non-cancerous cells treated with CCR1 antagonist; assay type: cell-based; settings: compared with vehicle control
[3] = test system: CCR1 expression; experiment: CCR1 expression in PDAC cells after prolonged co-culture with BMDM (qRT-PCR, flow cytometry); assay type: cell-based, murine; settings: PDAC cells co-cultured with BMDM; by qRT-PCR and flow cytometry
Procedure: Culture conditions for PDAC and BMDM cell lines used in this study are described above. For co-cultures, mCherry-labelled PDAC cells were mixed 1:1 with ZsGreen-labelled macrophages, typically primary BMDM unless otherwise noted. Co-cultures were seeded and kept as subconfluent cultures for 48-96 hours in either 2D or 3D conditions.
Total RNA was isolated and purified from cells using Qiazol reagent and miRNeasy mini kit (Qiagen). cDNA was synthesized using the High Capacity RNA-to-cDNA kit (ABI) according to manufacturer's instructions. qRT-PCR was performed using Power SYBR Green PCR Master Mix (ABI) on the TaqMan 7900 (ABI). Relative expression levels were defined using the ΔΔCt method and normalizing to 18S rRNA and/or GAPDH.
Pre-treatment: PDAC cells and BMDM were pre-treated with CCR1 antagonists 24 hours prior to the start of the experiment, harvested and then seeded according to the co-culture method previously described for the duration of the experiment.
Treatment at time of co-culture: PDAC cells and BMDM were seeded according to the co-culture method as previously described and CCR1 antagonists were treated at the time of seeding and allowed to incubate for the duration of the experiment. […]

Compound: C[C@@H]1CN(Cc2ccc(F)cc2)CCN1C(=O)COc1ccc(Cl)cc1NC(N)=O [BX-471, (2R)-1-[[2-[(Aminocarbonyl)amino]-4-chlorophenoxy]acetyl]-4-[(4-fluorophenyl)methyl]-2-methylpiperazine]
- macrophage-mediated pro-invasive phenotype of PDAC cells [1]: striking ability to rein in the effect of macrophages to confer functional pro-invasive abilities to PDAC cells
- viability of fibroblasts and macrophages [2]: just as viable as cell treated with vehicle control

Compound: CC[N@+]1(C/C2=C/CCCCCC2)CC[C@@H](NC(=O)C2c3cc(Cl)ccc3Oc3ccc(Cl)cc32)CC1.[I-] [J113863, 1,4-cis-1-(1-cycloocten-1-ylmethyl)-4-[[(2,7-dichloro-9H-xanthen-9-yl)carbonyl]amino]-1-ethylpiperidinium iodide]
- macrophage-mediated pro-invasive phenotype of PDAC cells [1]: striking ability to rein in the effect of macrophages to confer functional pro-invasive abilities to PDAC cells
- induction of CCR1 expression due to prolonged co-culture [3]: blunting the induction of CCR1 expression
